# Values of other authors in patent US20080064711A1, “Composition for treating oral cavity and Mucousal infections” (J.P.M.E.D. LTD., priority 2002, published 2008).
# How the values were obtained:
# [1] = system: human keratinocyte and fibroblast cultures; details: Ponec et al. J Pharm Sci 1990
# [2] = system: Gram negative bacteria that tend to colonize the oral cavity; details: patients undergoing radiation therapy; Spijkervet et al., 1990
SMILES,Cytotoxicity to human keratinocyte and fibroblast cultures [1],Effectiveness against Gram negative bacteria colonizing the oral cavity [2]
CCO [Ethanol],cytotoxic,–
[H]/N=C(\N/C(=N/[H])NCCCCCCNC(=N)NC(=N)Nc1ccc(Cl)cc1)Nc1ccc(Cl)cc1 [chlorhexidine],–,relatively ineffective
CN(C)C=O [dimethylformamide],cytotoxic,–
C[S+](C)[O-] [dimethylsulfoxide],cytotoxic,–
CC(O)CO (centres unmarked) [propylene glycol],cytotoxic,–
